Reference: patent US20250381168A1, “VLA4 INHIBITORS AND USES THEREOF” (Washington University, priority 2022, published 2025)
“Also recorded” adds a separate entry of the source. Where two headings read alike, the source gives them in different places.

Tests used:
integrin a4b7 = integrin a4b7 (Homo sapiens (Human), UniProt P13612+P26010); assay: a4b7 solid phase receptor assay (SPRA); settings: recombinant human a4b7 binding to plate-coated human VCAM1 (TABLE 4)
Method: Wells were washed 3 times with TBS+ and blocking buffer (TBS+ with 1% bovine serum albumin), the plate was incubated for 1 hr at 37° C., and then washed 3× with TBS+ buffer. Recombinant human a4b7 (R & D Systems) was diluted to 1 μg/ml in TBS+/0.1% bovine serum albumin. Test compounds were diluted into the integrin solution and added to the washed ligand-coated plate according to a standard template with each sample repeated in triplicate. After incubation for 2 hr at room temperature, the plate was washed 3× with 150 μl of TBS+ buffer. To each well, biotinylated anti-A4 antibody (R & D Systems) at 1 μg/ml in TBS+/0.1% BSA was added and the plate covered and incubated for 1 hr at room temperature. After washing the plate 3× with TBS+ buffer, streptavidin-conjugated horseradish peroxidase (R & D Systems) diluted in TBS+ blocking buffer was added to the wells and the plate incubated for 20 min at room temperature. The plate was washed 3× with TBS+ buffer followed by addition of 50 μl of TMB substrate (Sigma T4444). After incubation for 20 min at room temperature, plates were stopped with TMB stop solution (Sigma S5689) by colorimetric detection at 450 nm wavelength using a Tecan Safire II plate reader.

[1] = system: hematopoietic stem/progenitor cells (HSPCs); assay: HSPC mobilization into peripheral blood, colony forming unit (CFU) assay; for HSPC mobilization, result in words: test concentration or dose not given here; for No. CFU (×10^3)/mL ± SD, 6 hr: test concentration or dose not given here; settings: mice; for No. CFU (×10^3)/mL ± SD, 1 hr: 1 hr post dose (TABLE 20); for No. CFU (×10^3)/mL ± SD, 8 hr: 8 hr post dose (TABLE 20)
VLA-4 (a4b1) = VLA-4 (a4b1) (Homo sapiens (Human), UniProt P05556+P13612); assay: sVCAM flow cytometry cell-based assay (inhibition of soluble VCAM-1 binding to G2 ALL cells);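 note: compounds at 0.1 to 1000 nM preincubated 30 min with G2 ALL cells, then VCAM/Fc added for 30 min, bound VCAM-1 detected by PE secondary antibody, percent binding cells by flow cytometry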
Method: VLA-4 (a4b1) inhibitor compounds were tested for their ability to inhibit the binding of soluble VCAM-1 to human G2 acute lymphoblastic leukemia (ALL) cells. Briefly, G2 ALL cells are pre-incubated with increasing concentrations (0.1 to 1000 nM) of compounds for 30 minutes. Soluble VCAM/Fc chimera protein (R & D systems) is then added to the mixture and the cells incubated for an additional 30 minutes. Afterwards, cells are washed and VCAM-1 is detected using a PE-conjugated secondary polyclonal antibody. In each experiment, an aliquot of cells are stained with isotype control antibodies to serve as a negative control. The percentage of VCAM-1 binding cells was then determined by flow cytometry.

[2] = single dose, peripheral blood, 2 hr post dose (TABLE 9)
[3] = single dose, peripheral blood, 4 hr post dose (TABLE 9)
[4] = single dose, peripheral blood, 6 hr post dose (TABLE 9)
[5] = as listed in TABLE 9, read-out: sVCAM IC50
[6] = inhibition of sVCAM-1 binding to human G2 ALL cells (TABLE 3), read-out: SVCAM-1, IC50
[7] = single dose, peripheral blood, 4 hr post dose (TABLE 20)
[8] = as listed in TABLE 20, read-out: sVCAM IC50
[9] = single s.c. injection, peripheral blood, 0.25 hr post dose (TABLE 6)
[10] = single s.c. injection, peripheral blood, 2 hr post dose (TABLE 6)
[11] = single s.c. injection, peripheral blood, 4 hr post dose (TABLE 6)
[12] = as listed in TABLE 6, read-out: sVCAM IC50

VLA-4 (a4b1), sequence (P13612 34-1032): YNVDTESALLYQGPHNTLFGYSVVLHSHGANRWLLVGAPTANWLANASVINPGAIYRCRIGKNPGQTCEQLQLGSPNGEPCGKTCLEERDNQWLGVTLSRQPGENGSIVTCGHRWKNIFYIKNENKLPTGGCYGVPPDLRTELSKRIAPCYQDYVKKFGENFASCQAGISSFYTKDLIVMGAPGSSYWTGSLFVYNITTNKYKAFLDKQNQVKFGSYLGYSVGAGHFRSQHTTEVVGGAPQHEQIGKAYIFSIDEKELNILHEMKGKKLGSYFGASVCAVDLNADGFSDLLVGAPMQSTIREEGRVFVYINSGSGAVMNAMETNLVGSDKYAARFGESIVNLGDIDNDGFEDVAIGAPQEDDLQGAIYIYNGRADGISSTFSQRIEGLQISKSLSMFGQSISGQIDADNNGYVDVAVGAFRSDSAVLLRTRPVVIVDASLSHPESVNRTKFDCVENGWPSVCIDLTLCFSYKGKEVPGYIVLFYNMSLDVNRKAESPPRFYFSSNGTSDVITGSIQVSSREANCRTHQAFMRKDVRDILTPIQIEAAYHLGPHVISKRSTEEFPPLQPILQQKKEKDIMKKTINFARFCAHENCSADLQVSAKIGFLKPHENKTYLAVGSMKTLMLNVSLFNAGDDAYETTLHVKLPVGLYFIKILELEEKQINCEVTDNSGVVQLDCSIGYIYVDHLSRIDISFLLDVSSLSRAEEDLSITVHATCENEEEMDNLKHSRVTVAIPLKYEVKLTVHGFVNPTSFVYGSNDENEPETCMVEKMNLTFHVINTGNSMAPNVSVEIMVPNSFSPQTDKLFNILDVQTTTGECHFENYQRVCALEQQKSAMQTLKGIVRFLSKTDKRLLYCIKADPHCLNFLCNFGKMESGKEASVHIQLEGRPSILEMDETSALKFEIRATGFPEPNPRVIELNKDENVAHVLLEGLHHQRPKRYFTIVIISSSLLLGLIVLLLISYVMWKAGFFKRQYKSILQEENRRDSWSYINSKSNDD
VLA-4 (a4b1), sequence (P05556 21-798): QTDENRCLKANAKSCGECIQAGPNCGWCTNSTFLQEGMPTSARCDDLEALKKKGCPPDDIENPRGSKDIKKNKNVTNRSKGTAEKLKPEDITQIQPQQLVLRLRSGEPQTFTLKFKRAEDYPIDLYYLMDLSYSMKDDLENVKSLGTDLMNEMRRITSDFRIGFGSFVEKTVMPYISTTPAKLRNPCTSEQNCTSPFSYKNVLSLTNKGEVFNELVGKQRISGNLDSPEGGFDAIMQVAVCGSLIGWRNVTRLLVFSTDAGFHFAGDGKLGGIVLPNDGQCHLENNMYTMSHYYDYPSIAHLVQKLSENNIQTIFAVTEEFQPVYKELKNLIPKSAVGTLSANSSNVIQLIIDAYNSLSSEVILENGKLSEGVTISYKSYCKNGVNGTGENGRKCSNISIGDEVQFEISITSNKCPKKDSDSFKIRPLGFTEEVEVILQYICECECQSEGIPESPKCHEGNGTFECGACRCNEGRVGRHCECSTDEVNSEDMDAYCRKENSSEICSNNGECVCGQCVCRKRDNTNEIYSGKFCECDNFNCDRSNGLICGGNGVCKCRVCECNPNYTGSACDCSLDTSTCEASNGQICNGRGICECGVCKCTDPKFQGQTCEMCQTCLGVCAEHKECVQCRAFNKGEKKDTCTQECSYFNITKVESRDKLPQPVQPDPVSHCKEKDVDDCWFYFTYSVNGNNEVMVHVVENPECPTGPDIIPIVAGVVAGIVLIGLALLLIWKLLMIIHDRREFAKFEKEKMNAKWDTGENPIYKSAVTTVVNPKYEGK
integrin a4b7, sequence (P13612 34-970): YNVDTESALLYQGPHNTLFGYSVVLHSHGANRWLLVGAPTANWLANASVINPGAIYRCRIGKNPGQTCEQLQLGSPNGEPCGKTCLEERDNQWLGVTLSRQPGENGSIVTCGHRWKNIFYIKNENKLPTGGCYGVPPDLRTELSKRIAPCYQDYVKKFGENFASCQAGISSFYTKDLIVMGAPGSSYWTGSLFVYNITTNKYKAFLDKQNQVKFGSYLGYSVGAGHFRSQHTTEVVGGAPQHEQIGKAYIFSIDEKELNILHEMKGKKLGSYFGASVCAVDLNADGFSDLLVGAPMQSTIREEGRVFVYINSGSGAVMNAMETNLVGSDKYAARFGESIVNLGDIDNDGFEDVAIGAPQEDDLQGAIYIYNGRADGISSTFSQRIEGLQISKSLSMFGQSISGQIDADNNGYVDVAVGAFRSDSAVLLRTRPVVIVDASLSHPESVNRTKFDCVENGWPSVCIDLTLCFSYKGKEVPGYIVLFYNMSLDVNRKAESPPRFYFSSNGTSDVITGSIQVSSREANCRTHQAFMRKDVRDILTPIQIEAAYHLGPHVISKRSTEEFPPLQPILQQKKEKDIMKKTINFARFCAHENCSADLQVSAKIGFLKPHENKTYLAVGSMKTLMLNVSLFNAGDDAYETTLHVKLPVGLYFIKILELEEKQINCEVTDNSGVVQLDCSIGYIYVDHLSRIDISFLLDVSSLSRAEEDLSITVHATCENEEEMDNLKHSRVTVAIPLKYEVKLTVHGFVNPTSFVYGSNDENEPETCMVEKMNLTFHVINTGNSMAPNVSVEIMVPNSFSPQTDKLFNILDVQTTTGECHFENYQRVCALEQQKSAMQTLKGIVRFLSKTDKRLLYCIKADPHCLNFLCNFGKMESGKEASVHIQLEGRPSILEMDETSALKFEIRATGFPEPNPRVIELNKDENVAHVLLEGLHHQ
integrin a4b7, sequence (P26010 20-723): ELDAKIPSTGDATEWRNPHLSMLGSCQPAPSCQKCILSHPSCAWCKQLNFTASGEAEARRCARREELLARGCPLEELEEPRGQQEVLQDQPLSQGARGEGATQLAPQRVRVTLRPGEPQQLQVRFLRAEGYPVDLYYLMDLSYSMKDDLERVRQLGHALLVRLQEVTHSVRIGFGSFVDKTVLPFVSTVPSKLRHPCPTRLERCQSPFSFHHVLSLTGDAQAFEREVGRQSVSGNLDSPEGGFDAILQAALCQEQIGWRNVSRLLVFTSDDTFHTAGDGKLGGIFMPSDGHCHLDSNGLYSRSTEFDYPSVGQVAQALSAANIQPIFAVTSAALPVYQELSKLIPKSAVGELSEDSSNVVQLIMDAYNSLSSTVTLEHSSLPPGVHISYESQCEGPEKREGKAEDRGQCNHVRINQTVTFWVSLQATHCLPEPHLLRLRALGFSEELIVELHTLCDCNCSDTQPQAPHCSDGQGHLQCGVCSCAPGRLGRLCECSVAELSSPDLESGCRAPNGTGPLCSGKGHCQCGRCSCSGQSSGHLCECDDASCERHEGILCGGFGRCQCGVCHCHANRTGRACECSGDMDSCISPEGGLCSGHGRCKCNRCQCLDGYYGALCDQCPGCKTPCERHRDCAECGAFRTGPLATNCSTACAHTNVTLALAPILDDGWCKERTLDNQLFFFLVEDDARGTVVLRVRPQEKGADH

COCCOCCOCCOCCOCCOCCOCCOCCOCCOCCOCCOCCOCCOCCOCCOCCOCCOCCOCCOCCOCCOCCOCCOCCOCCOCCOCCOCCOCCOCCOCCOCCOCCOCCOCCOCCOCc1cc(OC)c(-c2ccc(C[C@H](NC(=O)[C@@H]3CCCN3S(=O)(=O)c3cc(Cl)cc(Cl)c3)C(=O)O)cc2)c(OC)c1 [Example 2]
IC50 (integrin a4b7): 5.4 nM | No. CFU (×10^3)/mL ± SD, 2 hr [1, 2]: 4.10 ± 1.40 (×10^3)/mL | No. CFU (×10^3)/mL ± SD, 2 hr ([1]; single dose, peripheral blood, 2 hr post dose (TABLE 10)): 4.42 ± 1.41 (×10^3)/mL | No. CFU (×10^3)/mL ± SD, 4 hr [1, 3]: 4.98 ± 1.88 (×10^3)/mL | No. CFU (×10^3)/mL ± SD, 4 hr ([1]; single dose, peripheral blood, 4 hr post dose (TABLE 10)): 3.59 ± 0.93 (×10^3)/mL | No. CFU (×10^3)/mL ± SD, 6 hr [1, 4]: 1.87 ± 0.58 (×10^3)/mL | No. CFU (×10^3)/mL ± SD, 6 hr ([1]; single dose, peripheral blood, 6 hr post dose (TABLE 10)): 2.12 ± 0.84 (×10^3)/mL | IC50 (VLA-4 (a4b1); [5]): 0.833 nM | IC50 (VLA-4 (a4b1); as listed in TABLE 10, read-out: sVCAM IC50): 0.833 nM | IC50 (VLA-4 (a4b1); [6]): 0.833 nM

Cc1cccc(Cl)c1C(=O)N[C@@H](Cc1ccc(NC(=O)c2c(Cl)cccc2Cl)cc1)C(=O)O [RO0270608]
HSPC mobilization, result in words ([1]; single dose): lack of any appreciable HSC mobilization | No. CFU (×10^3)/mL ± SD, 1 hr ([1]; single dose, peripheral blood): 0.64 ± 0.41 (×10^3)/mL | No. CFU (×10^3)/mL ± SD, 4 hr [1, 7]: 0.19 ± 0.06 (×10^3)/mL | No. CFU (×10^3)/mL ± SD, 8 hr ([1]; single dose, peripheral blood): 0.11 ± 0.05 (×10^3)/mL | IC50 (VLA-4 (a4b1); [8]): 98.7 nM | IC50 (VLA-4 (a4b1); [6]): 98.7 nM

COCCOCCOCCOCCOCCOCCOCCOCCOCCOCCOCCOCCOCCOCCOCCOCCOCCOCCOCCOCCOCCOCCOCCOCCSCc1cc(OC)c(-c2ccc(C[C@H](NC(=O)[C@@H]3CCCN3S(=O)(=O)c3cc(Cl)cc(Cl)c3)C(=O)O)cc2)c(OC)c1 [Example 7, (2S)-2-[[(2S)-1-(3,5-dichlorophenyl)sulfonylpyrrolidine-2-carbonyl]amino]-3-[4-[2,6-dimethoxy-4-[2-[2-[2-[2-[2-[2-[2-[2-[2-[2-[2-[2-[2-[2-[2-[2-[2-[2-[2-[2-[2-[2-[2-(2-thiomethylethoxy)ethoxy]ethoxy]ethoxy]ethoxy]ethoxy]ethoxy]ethoxy]ethoxy]ethoxy]ethoxy]ethoxy]ethoxy]ethoxy]ethoxy]ethoxy]ethoxy]ethoxy]ethoxy]ethoxy]ethoxy]ethoxy]ethoxy]ethoxymethyl]phenyl]phenyl]propanoic acid]
No. CFU (x10^3)/mL ± SD, 2 hr ([1]; single dose, peripheral blood, 2 hr post dose (TABLE 11)): 2.53 ± 1.11 (x10^3)/mL | No. CFU (x10^3)/mL ± SD, 4 hr ([1]; single dose, peripheral blood, 4 hr post dose (TABLE 11)): 3.91 ± 1.44 (x10^3)/mL | No. CFU (x10^3)/mL ± SD, 6 hr ([1]; single dose, peripheral blood, 6 hr post dose (TABLE 11)): 2.96 ± 1.15 (x10^3)/mL | No. CFU (x10^3)/mL ± SD, 24 hr ([1]; single dose, peripheral blood, 24 hr post dose (TABLE 11)): 0.15 ± 0.05 (x10^3)/mL | IC50 (VLA-4 (a4b1); as listed in TABLE 11, read-out: sVCAM IC50): 1.36 nM | IC50 (VLA-4 (a4b1); [6]): 1.36 nM

COCCOCCOCCOCCOCCOCCOCCOCCOCCOCCOCCOCCOCc1cc(OC)c(-c2ccc(C[C@H](NC(=O)[C@@H]3CCCN3S(=O)(=O)c3cc(Cl)cc(Cl)c3)C(=O)O)cc2)c(OC)c1 [Example C13, (S)-2-((S)-1-((3,5-dichlorophenyl)sulfonyl)pyrrolidine-2-carboxamido)-3-(2′,6′-dimethoxy-4′-(2,5,8,11,14,17,20,23,26,29,32,35,38-tridecaoxanonatriacontyl)-[1,1′-biphenyl]-4-yl)propanoic Acid]
HSPC mobilization, result in words ([1]; single dose): returning to baseline by 4 hours and clearly at baseline by 6 hours | No. CFU (×10^3)/mL ± SD, 2 hr [1, 2]: 2.01 ± 0.75 (×10^3)/mL | No. CFU (×10^3)/mL ± SD, 4 hr [1, 3]: 0.41 ± 0.19 (×10^3)/mL | No. CFU (×10^3)/mL ± SD, 6 hr [1, 4]: 0.10 ± 0.04 (×10^3)/mL | IC50 (VLA-4 (a4b1); [5]): 0.673 nM | IC50 (VLA-4 (a4b1); [6]): 0.673 nM

COc1cccc(OC)c1-c1ccc(C[C@H](NC(=O)[C@]2(C)CCCN2S(=O)(=O)c2cc(Cl)cc(Cl)c2)C(=O)O)cc1 [Example C5]
No. CFU (×10^3)/mL ± SD, 0.25 hr [1, 9]: 2.78 ± 0.48 (×10^3)/mL | No. CFU (×10^3)/mL ± SD, 2 hr [1, 10]: 1.38 ± 0.53 (×10^3)/mL | No. CFU (×10^3)/mL ± SD, 4 hr [1, 11]: 0.31 ± 0.09 (×10^3)/mL | IC50 (VLA-4 (a4b1); [12]): 3.59 nM | IC50 (VLA-4 (a4b1); [6]): 3.59 nM

Cc1ccccc1NC(=O)Nc1ccc(CC(=O)N(C)[C@@H](CC(C)C)C(=O)NCC[C@H](NC(=O)[C@@H]2CCCN2S(=O)(=O)c2cc(Cl)cc(Cl)c2)C(=O)O)cc1 [BIO5192]
IC50 (integrin a4b7): > 10000 nM

CN(C)c1ccc2c(c1)c(=O)n(-c1ccc(C[C@H](NC(=O)c3c(Cl)cccc3Cl)C(=O)O)cc1)c(=O)n2C [Carotegrast]
No. CFU (×10^3)/mL ± SD, 1 hr ([1]; single dose, peripheral blood): 0.58 ± 0.19 (×10^3)/mL | No. CFU (×10^3)/mL ± SD, 4 hr [1, 7]: 0.18 ± 0.08 (×10^3)/mL | No. CFU (×10^3)/mL ± SD, 8 hr ([1]; single dose, peripheral blood): 0.19 ± 0.09 (×10^3)/mL | IC50 (VLA-4 (a4b1); [8]): 118 nM | IC50 (VLA-4 (a4b1); [6]): 118 nM

COCCOCCOCCOCc1cc(OC)c(-c2ccc(C[C@H](NC(=O)c3c(Cl)cc(C(=O)O)cc3Cl)C(=O)O)cc2)c(OC)c1 [Example C4]
time to which HSPC mobilization is extended after a single dose [1]: ≤ 2 h | No. CFU (×10^3)/mL ± SD, 2 hr ([1]; alone or in combination with Plerixafor and tGroβ, peripheral blood, 2 hr (TABLE 17)): 2.91 ± 0.83 (×10^3)/mL | No. CFU (×10^3)/mL ± SD, 4 hr ([1]; alone or in combination with Plerixafor and tGroβ, peripheral blood, 4 hr (TABLE 17)): 0.53 ± 0.16 (×10^3)/mL | No. CFU (×10^3)/mL ± SD, 6 hr ([1]; alone or in combination with Plerixafor and tGroβ, peripheral blood, 6 hr (TABLE 17)): 0.28 ± 0.09 (×10^3)/mL | No. CFU (×10^3)/mL ± SD, 0.25 hr ([1]; single s.c. injection, peripheral blood, 0.25 hr post dose (TABLE 5)): 4.73 ± 1.31 (×10^3)/mL | No. CFU (×10^3)/mL ± SD, 2 hr ([1]; single s.c. injection, peripheral blood, 2 hr post dose (TABLE 5)): 1.47 ± 0.51 (×10^3)/mL | No. CFU (×10^3)/mL ± SD, 4 hr ([1]; single s.c. injection, peripheral blood, 4 hr post dose (TABLE 5)): 0.49 ± 0.12 (×10^3)/mL | IC50 (VLA-4 (a4b1); as listed in TABLE 5, read-out: sVCAM IC50): 1.69 nM | IC50 (VLA-4 (a4b1); as listed in TABLE 17, read-out: sVCAM IC50): 1.69 nM | IC50 (VLA-4 (a4b1); [6]): 1.69 nM

CCOCc1cc(OC)c(-c2ccc(C[C@H](NC(=O)[C@@H]3CCCN3S(=O)(=O)c3cc(Cl)cc(Cl)c3)C(=O)O)cc2)c(OC)c1 [Example C6]
No. CFU (×10^3)/mL ± SD, 0.25 hr [1, 9]: 2.58 ± 0.65 (×10^3)/mL | No. CFU (×10^3)/mL ± SD, 2 hr [1, 10]: 2.12 ± 0.70 (×10^3)/mL | No. CFU (×10^3)/mL ± SD, 4 hr [1, 11]: 0.46 ± 0.20 (×10^3)/mL | IC50 (VLA-4 (a4b1); [12]): 0.445 nM | IC50 (VLA-4 (a4b1); [6]): 0.445 nM

O=C(O)[C@H](Cc1ccc(OC(=O)N2CCCC2)cc1)NC(=O)[C@@H]1CCCN1S(=O)(=O)c1ccccc1 [BOP, (N-benzenesulfonyl)-L-prolyl-L-O-(1-pyrrolidinylcarbonyl)tyrosine]
HSPC mobilization, result in words ([1]; single dose): rapid but transient mobilization of HSPCs but are returning to baseline by 2 hours | IC50 (VLA-4 (a4b1); as listed in TABLE 13, for the VLA-4 inhibitor alone, read-out: sVCAM IC50): 47 nM | IC50 (VLA-4 (a4b1); [6]): 47.1 nM

COCCOCCOCCOCCOCCOCCOCCOCCOCCOCCOCCOCCOCCOCCOCCOCCOCCOCCOCCOCCOCCOCCOCCOCCOCCOCCOCCOCCOCCOCCOCCOCCOCCOCCOCCOCCn1cc(COCc2cc(OC)c(-c3ccc(C[C@H](NC(=O)[C@@H]4CCCN4S(=O)(=O)c4cc(Cl)cc(Cl)c4)C(=O)O)cc3)c(OC)c2)nn1 [Example C10, (S)-3-(4′-(((1-(2,5,8,11,14,17,20,23,26,29,32,35,38,41,44,47,50,53,56,59,62,65,68,71,74,77,80,83, 86,89,92,95,98,101,104,107-hexatriacontaoxanonahectan-109-yl)-1H-1,2,3-triazol-4-yl)methoxy)methyl)-2′,6′-dimethoxy-[1,1′-biphenyl]-4-yl)-2-((S)-1-((3,5-dichlorophenyl)sulfonyl)pyrrolidine-2-carboxamido)propanoic Acid]
HSPC mobilization, result in words ([1]; single dose): returning to baseline by 4 hours; also recorded: inferior mobilization at 4 hours compared to Example 3 | No. CFU (×10^3)/mL ± SD, 0.25 hr ([1]; single dose, peripheral blood, 0.25 hr post dose (TABLE 8)): 3.87 ± 1.33 (×10^3)/mL | No. CFU (×10^3)/mL ± SD, 2 hr ([1]; single dose, peripheral blood, 2 hr post dose (TABLE 8)): 3.37 ± 1.12 (×10^3)/mL | No. CFU (×10^3)/mL ± SD, 4 hr ([1]; single dose, peripheral blood, 4 hr post dose (TABLE 8)): 0.90 ± 0.52 (×10^3)/mL | IC50 (VLA-4 (a4b1); as listed in TABLE 8, read-out: sVCAM IC50): 0.552 nM | IC50 (VLA-4 (a4b1); [6]): 0.552 nM

COCCOCCOCCOCc1cc(OC)c(-c2ccc(C[C@H](NC(=O)[C@@H]3CCCN3S(=O)(=O)c3cc(Cl)cc(Cl)c3)C(=O)O)cc2)c(OC)c1 [Example C7]
HSPC mobilization, result in words ([1]; single dose): returning to baseline by 4 hours and clearly at baseline by 6 hours | No. CFU (×10^3)/mL ± SD, 2 hr [1, 2]: 2.65 ± 1.39 (×10^3)/mL | No. CFU (×10^3)/mL ± SD, 4 hr [1, 3]: 0.44 ± 0.17 (×10^3)/mL | No. CFU (×10^3)/mL ± SD, 6 hr [1, 4]: 0.11 ± 0.08 (×10^3)/mL | No. CFU (×10^3)/mL ± SD, 0.25 hr [1, 9]: 2.57 ± 0.62 (×10^3)/mL | No. CFU (×10^3)/mL ± SD, 2 hr [1, 10]: 2.52 ± 0.37 (×10^3)/mL | No. CFU (×10^3)/mL ± SD, 4 hr [1, 11]: 0.50 ± 0.18 (×10^3)/mL | IC50 (VLA-4 (a4b1); [12]): 0.194 nM | IC50 (VLA-4 (a4b1); [5]): 0.194 nM | IC50 (VLA-4 (a4b1); [6]): 0.194 nM
